Laboratory results: the METLIN SMRT retention time set (Domingo-Almenara et al. 2019)

Test: gradient 5% acetonitrile 3 min, to 50% in 2 min, to 85% in 15 min, held 3 min, 100 µL/min
Conditions: column: Zorbax Extend-C18 2.1 x 50 mm; eluents: water / acetonitrile, 0.1% formic acid
In short: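 Data were gathered over 3 months by HPLC coupled to a quadrupole time-of-flight mass spectrometer, operated in positive and negative ionization mode. Mixtures of ~100 pure standards ran on a Zorbax Extend-C18 column (2.1 × 50 mm, 1.8 μm) at 100 μL/min, with water and acetonitrile each containing 0.1% formic acid and dead and dwell volumes of 40 μL and 900 μL. Retention time was read from adduct peaks picked by computer and checked manually.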

Structure (SMILES) | RP-LC retention time [s]
O=C(NCc1ccc(N2CCCCC2)cc1)C1CCN(c2nnc3ccccn23)CC1 | 545
O=C(Nc1ccc2c(c1)OCCO2)C(=O)c1cccn1Cc1ccccc1 | 1040
COc1ccc(-c2noc(C3CCCN3C(=O)Nc3cc(OC)cc(OC)c3)n2)cc1 (stereo not drawn) | 941
COC(=O)c1ccc(NC(=O)c2ccc(-n3ccnc3C)nn2)cc1 | 561
O=C(c1ccc(C(F)(F)F)s1)N1C[C@@H]2C[C@H]1C[C@@H]2NS(=O)(=O)c1cccs1 | 813
CCCn1cc(CCNS(=O)(=O)c2ccc(Cl)s2)c2cccnc21 | 899
Cc1cc(N2CCN(C)CC2)nc2ccc(NC(=S)NCc3cccs3)cc12 | 576
Cc1ccc(S(=O)(=O)c2cnc(N3CCN(c4cc(Cl)ccc4C)CC3)nc2N)cc1 | 1320
COc1ccc(NS(=O)(=O)c2cn(C(C)C)c3ncccc23)cc1Cl | 908
Cc1sc2ccn(C)c(=O)c2c1C(=O)N1CCC2(CC1)OCCO2 | 626
Cc1nn(-c2ccccc2)c(C)c1S(=O)(=O)N1CCC(C(=O)N2CCc3ccccc3C2)CC1 | 986
CCN(CC)C(=O)c1ccc(C2=CC3(CCNCC3)Oc3cccc(O)c32)cc1 | 725
Cc1cc(N2CCOCC2)nc(N2CCN(C(=O)Cc3ccc(F)cc3)CC2)n1 | 566
Cc1cc(Cl)ccc1NC(=O)c1cn(C)c2ncccc12 | 827
CC(C)CN1CCN(C(=O)C2CC(=O)N(CCc3ccccc3)C2)CC1 (stereo not drawn) | 580
CCN(CC)CCNC(=O)CN1N=C(c2ccc(Cl)cc2)CCC1=O | 625
COc1cccc(NC(=O)Cn2c(N3CCOCC3)nc(C)cc2=O)c1 | 652
CCn1cc(S(=O)(=O)Nc2ccc(C)cc2F)c2cccnc21 | 869
Cc1cc(C)c(S(=O)(=O)N2CCC(C(=O)NCCc3csc(-c4ccccc4)n3)CC2)cc1C | 1070
CCOc1ccccc1NC(=O)NCCn1c(C(F)(F)F)nc2cccnc21 | 799

Structure (SMILES) | RP-LC retention time [s]
CCCc1nnc(-c2cccnc2N2CCN(C(=O)c3ccoc3)CC2)o1 | 728
CC(C)Nc1ccc2nnc(C3CCC3)n2n1 | 801
COc1ccc(-c2nnc(SCc3cc(=O)n4c(C)csc4n3)o2)cc1OC | 762
CCc1noc(NC(C)=O)c1-c1ccc(OC)c(S(=O)(=O)N2CCN(c3ncccn3)CC2)c1 | 723
O=C(Nc1ccc2c(c1)OCO2)C1CCCN(c2nnc3ccc(Cl)cn23)C1 (stereo not drawn) | 747
COc1ccc(-c2cc(C(=O)Nc3cc(Cl)ccc3C)no2)cc1 | 1150
CCNC(=O)Nc1ccc(OCC(=O)NCc2cccc(OC)c2)nc1 | 669
Cn1c(=O)c2cc(C(=O)N3CCN(c4ccccc4F)CC3)sc2n(C)c1=O | 765
CC(CC(=O)O)CC(=O)Nc1nc(-c2ccccc2)c(-c2ccccc2)s1 (stereo not drawn) | 927
CCc1ccc(C2=C(C)C(N3CCC(NC(=O)NC(C)C)CC3)=NS2(=O)=O)cc1 | 596
COc1ccccc1NC(=O)N1CCOc2ccc(Cl)cc21 | 1050
O=C(CN1CCN(Cc2ccc(F)cc2)C1=O)NC1CCN(Cc2ccccc2)CC1 | 618
COc1cccc(-c2noc(CN3C(=O)COc4cc(C(C)(C)C)ccc43)n2)c1 | 1200
COc1ccc(N2CC(c3nc(-c4ccc(Br)cc4)no3)CC2=O)cc1 (stereo not drawn) | 1050
Cc1cc(C(=O)Nc2ccc(Cl)cc2)nc2cc(-c3ccco3)nn12 | 1170
Cc1ccc(S(=O)(=O)c2nnn3c2nc(N2CCN(c4ccccn4)CC2)c2ccccc23)cc1 | 711
CCc1ccc(CNC(=O)C2CCCN(c3nccnc3Oc3ccc(C)cc3)C2)cc1 (stereo not drawn) | 1150
Cc1ccc(NC(=O)N2CCC(CCN)CC2)cc1F | 612
Cc1ccc(CNC(=O)C2(C)CN(S(C)(=O)=O)CC(=O)N2c2ccc(C)c(C)c2)cc1 (stereo not drawn) | 807
CC1(C(=O)NC2CCCCCC2)CN(S(C)(=O)=O)CC(=O)N1c1cccc(Cl)c1 (stereo not drawn) | 882

Structure (SMILES) | RP-LC retention time [s]
CCOC(=O)C1CCN(c2cc(-c3nc(-c4ccccc4)no3)c3ccccc3n2)CC1 | 1370
CCC(C)NC(=O)C1CCCN(c2ccc(-c3ccc(C)c(C)c3)nn2)C1 (stereo not drawn) | 716
CCc1nc(-c2ccc(-c3noc(CNS(=O)(=O)c4ccccc4)n3)cc2)cs1 | 1020
Cc1ccc(S(=O)(=O)N2CCC(CCC(=O)N3CCN(C)CC3)CC2)cc1 | 627
O=C(CSc1ccc(N2CCCC(C(=O)NC3CC3)C2)nn1)Nc1ccc2c(c1)CCC2 (stereo not drawn) | 691
OC(CN1CCN(c2ccccc2)CC1)c1ccc2c(c1)OCO2 (stereo not drawn) | 630
CCN1C(=O)c2cc(S(=O)(=O)Nc3ccc(Cl)cc3F)ccc2Oc2cccnc21 | 1070
Cc1ccccc1CC(=O)Nc1ccc2c(c1)CCC(=O)N2CC(C)C | 910
O=C(NCCc1c[nH]c2ccc(Cl)cc12)c1cc(-c2ccccn2)nc2ccccc12 | 959
CCN1CCN(c2cc(C)c3cc(NC(=S)NCc4cccs4)ccc3n2)CC1 | 584
O=C1C2C3C=CC(C3)C2C(=O)N1CCN1CCN(Cc2ccc([N+](=O)[O-])cc2)CC1 (stereo not drawn) | 563
COC(=O)c1c(C)[nH]c(C(=O)N2CCC(CC(=O)NCCc3c(C)noc3C)CC2)c1C | 654
O=c1c2nc(-c3ccc(F)cc3)cn2ccn1-c1ccc(F)c(Cl)c1 | 888
O=C(CN1C(=O)CCC1=O)N1CCC(Oc2nc3ccc(F)cc3s2)CC1 | 734
Cc1ccc(-c2nc3cnccn3c2Nc2c(C)cccc2C)cc1 | 947
Cn1cnc2c(C(=O)NC3CCCCCC3)nn(-c3ccc(Cl)cc3)c2c1=O | 929
Cc1ccc(N2CC(c3noc(-c4ccc(C(C)(C)C)cc4)n3)CC2=O)cc1 (stereo not drawn) | 1310
O=C(N[C@H]1C[C@@H]2C[C@H]1N(C(=O)c1ccccc1Cl)C2)c1cccs1 | 643
Cc1ccc(CNC2=NCCNC23CCN(S(=O)(=O)c2ccc(Cl)cc2)CC3)cc1 | 778
Cc1nc(-c2cn(C(C)C)c3ncccc23)sc1C(=O)NCCN1CCOCC1 | 630

Further lines, results first:

RP-LC retention time [s] | Structure (SMILES)
1210 | CCN(CC)c1nc2cc(C(=O)OC)ccc2c(=O)n1-c1ccc(C)cc1
1100 | COc1cccc(-c2nnc(Cc3nc(-c4cccc(C(F)(F)F)c4)no3)o2)c1
590 | COc1cc2c(cc1OC)C1C(C(=O)NCCN3CCOCC3)c3ccccc3C(=O)N1CC2 (stereo not drawn)
726 | Cc1cc(=O)n2nc(N3CCCC(C(=O)N4CCC(Cc5ccccc5)CC4)C3)sc2n1 (stereo not drawn)
732 | CCCNC(=O)N(C1CCOCC1)C1CCN(C(=O)Nc2cccc(C)c2C)CC1
879 | O=S(=O)(c1cccn2c(SCc3ccc(F)cc3Cl)nnc12)N1CCCCC1
588 | CCn1cnc2cc(-c3noc(CNC(=O)c4ccco4)n3)ccc21
1240 | CCOC(=O)c1ccc2nc(C(F)(F)F)nc(NCCc3ccc(OC)cc3)c2c1
756 | O=C(Cc1ccc(NC(=O)c2cnc3ccccc3n2)cc1)NCC(F)(F)F
887 | COCCCNC(=O)C1(C)Cn2nc(-c3ccccc3)cc2C(=O)N1Cc1cccc(OC)c1 (stereo not drawn)
752 | Cn1cc(S(=O)(=O)N2CCC(C(=O)NCc3ccccc3Cl)CC2)cc1C(=O)N1CCCC1
623 | CC1(C)CC(NC(=O)COc2ccc(Cl)cc2)CC(C)(C)N1
689 | O=C(CCC1CCN(c2cc(NC3CC3)ncn2)CC1)NCc1ccc(F)cc1Cl
910 | CN(CC1(C)CCOCC1)S(=O)(=O)c1ccc(F)c(F)c1
805 | CC1=C(c2ccccc2)S(=O)(=O)N=C1N1CCCN(C(=O)c2ccc(F)cc2)CC1
782 | CCOc1ccc(-c2noc(N3CCC(C(=O)N4CCCC4)CC3)n2)cc1OC
689 | CCCCNC(=O)CC1CCN(C(=O)c2[nH]c(C)c(C(=O)OC)c2C)CC1
838 | COc1ccc(-c2nnc(N3CCC(C(=O)NCCC(C)C)CC3)o2)cc1
717 | CC1CCN(C(=O)C2CCc3sc(C(=O)N(C)C)cc3C2)CC1 (stereo not drawn)
998 | Cc1ccc(CSc2nnc3c(S(=O)(=O)N4CCN(c5ccc(F)cc5)CC4)cccn23)cc1
861 | CC(C)C(=O)Nc1cnc(-c2ccc(F)cc2)nc1
935 | O=C(c1ccc(-c2cccs2)nc1)N1CCN(c2ccccc2)CC1
718 | CCC(C)NC(=O)c1n[nH]c2c1CCCC2 (stereo not drawn)
964 | CCc1nc(OCC(=O)Nc2cc(Cl)ccc2Cl)c2ccccc2n1
927 | O=C(Nc1ccccc1C(=O)N1CCN(c2ccccc2F)CC1)C1=CSCCO1
804 | CCOc1cccc(CNC(=O)c2c(C)sc3ccn(C)c(=O)c23)c1
908 | COc1ccccc1NC(=O)Cn1nc2c(Oc3ccccc3Cl)nccn2c1=O
585 | COCCN1C(=O)[C@H]2CN(Cc3ccc(F)cc3)C[C@H]2C1=O
